Data taken from patent US10799600B1, “Targeted nanoparticles” (nanoDERM Sciences, Inc., priority 2010, dated 2020).

Columns and labels:
[1] = system: multi-drug resistant (and expanded-spectrum beta-lactamase resistant) Acinetobacter baumannii (BAA-1605); experiment: Clearing zone test on tryptic soy agar against multi-drug resistant Acinetobacter baumannii; type: cell-based; conditions: for resistance / sensitivity to control antibiotics: clinically relevant dose 10 μg/ml, A. baumannii
Procedure: (§1) FIG. 7 nanogels conjugated with polymyxin B (PmxnB) or vancomycin (VCM) and/or loaded with 5 mg/nil penicillin/streptomycin (Pen/Strep), and tested on tryptic soy agar for activity against multi-drug resistant (and expanded-spectrum beta-lactamase resistant) Acinetobacter baumannii (BAA-1605). (1) unmodified particle, Pen/Strep loaded; (2) unmodified particle; (3) Pen-Strep loaded and conjugated with PmxnB; (4) conjugated with PmxnB; (5) conjugated with VCM, Pen-Strep loaded; (6) conjugated with VCM; (7) conjugated with PmxnB/AMCA, Pen/Strep loaded; (8) conjugated with PmxnB/AMCA (fluorescent agent); (9) conjugated with VCM/AMCA, Pen/Strep loaded; (10) conjugated with VCM/AMCA; (11) PmxnB at 5 mg/ml; (12) VCM at 5 mg/ml; (13) Pen/Strep at 5 mg/ml; (14) PmxnB at 100 μg/ml; (15) VCM at 100 μg/ml; (16) Pen/Strep at 100 μg/ml; (17) PmxnB at 10 μg/ml; (18) VCM at 10 μg/ml; (19) Pen/Strep at 10 μg/ml.
(§2) Acinetobacter baumannii (a) treated with the hydrogel conjugated with polymyxin B (PMB) produced a clearing zone of ˜15 mm in diameter. […] Methicillin-resistant S. aureus (MRSA) (b) treated with VCM-conjugated particles produced a clearing zone of ˜15 mm in diameter.
(§3) The concept for targeted killing of bacterial pathogens with the hydrogels of the invention is illustrated in FIG. 1.

[2] = system: multi-drug resistant (MRSA) Staphylococcus aureus (NRS-385); experiment: Clearing zone test on tryptic soy agar against MRSA; type: cell-based; conditions: for resistance / sensitivity to control antibiotics: clinically relevant dose 10 μg/ml
Procedure: as §1, with “FIG. 8 nanogels conjugated” for “FIG. 7 nanogels conjugated”, “with 5 mg/ml penicillin/streptomycin (Pen/Strep),” for “with 5 mg/nil penicillin/streptomycin (Pen/Strep),”, “multi-drug resistant (MRSA) Staphylococcus aureus (NRS-385). (1) unmodified” for “multi-drug resistant (and expanded-spectrum beta-lactamase resistant) Acinetobacter baumannii (BAA-1605). (1) unmodified”, “at 5 mg/nil; (14) PmxnB” for “at 5 mg/ml; (14) PmxnB”
as §2, §3

Row | Compound | resistance / sensitivity to control antibiotics [1] | inhibition (clearing zone) ([1]; free control antibiotics (10 μg/ml), MDR A. baumannii) | resistance / sensitivity to control antibiotics [2] | clearing zone ([2]; free antibiotic 10 μg/ml) [mm] | clearing zone ([1]; free antibiotic 10 μg/ml, MDR A. baumannii) [mm] | inhibition (clearing zone) ([2]; free control antibiotics at 10 μg/ml)
1 | CN[C@H](CC(C)C)C(=O)N[C@H]1C(=O)N[C@@H](CC(N)=O)C(=O)N[C@H]2C(=O)N[C@H]3C(=O)N[C@H](C(=O)N[C@H](C(=O)O)c4cc(O)cc(O)c4-c4cc3ccc4O)[C@H](O)c3ccc(c(Cl)c3)Oc3cc2cc(c3O[C@@H]2O[C@H](CO)[C@@H](O)[C@H](O)[C@H]2O[C@H]2C[C@](C)(N)[C@H](O)[C@H](C)O2)Oc2ccc(cc2Cl)[C@H]1O [Free VCM, Vancomycin] | resistant | no inhibition | sensitive | ~6 | – | –
2 | polymyxin B [Free PMB] | sensitive | – | resistant | – | ~6 | no inhibition
